Patent US12077777B2, “Precursory regulatory cytotrophoblast cells and uses thereof” (Accelerated BioSciences Corp., priority 2019, dated 2024)

Legend:
PI3K/AKT signaling = assay: Gβ/PI3K/AKT/GSK3α/β pathway by blotting analysis in hTS cells; type: cell-based, human
Description: (§1) In cell culture, hTS cells were treated with bFGF and harvested at time as indicated and put into RIPA lysis solution (MILLIPORE®) supplemented with protease (Thermo Scientific) and phosphatase inhibitor (Cell Signaling Technology). After electrophoresis of 30 μg lysates on polyacrylamide gels, electroblotting onto PDVF membranes (MILLIPORE®) was performed. By blocking of 5% non-fat dry milk in PBS at room temperature (I hr), target proteins were incubated with primary antibodies. All membranes were incubated with chemiluminescent (MILLIPORE®) and imaging was captured by the CHEMIDOC® XRS system (BIO-RAD®). Antibodies used were listed in Key Resource Table. Data were analyzed by AlphaEaseFC (version 4.0.0).

FGFR1 = molecular target: T1, FGFR1 (Homo sapiens, UniProt P11362); assay: bFGF activation of FGFR1 and downstream PI3K signal, Western blot assay; type: cell-based; settings: bFGF 10 ng/ml
T1 construct: endogenous in cells; host or cells: human trophoblast stem (hTS) cells
Description: as §1

CD56 = assay: IL-8 induced CD56 via CXCR2/STAT3 signaling, Western blot assay; type: cell-based, human; settings: IL-8 30 ng/ml
Description: (§2) After electrophoresis of 30 μg lysates on polyacrylamide gels, electroblotting onto PDVF membranes (MILLIPORE®) was performed. By blocking of 5% non-fat dry milk in PBS at room temperature (I hr), target proteins were incubated with primary antibodies. All membranes were incubated with chemiluminescent (MILLIPORE®) and imaging was captured by the CHEMIDOC® XRS system (BIO-RAD®). Antibodies used were listed in Key Resource Table. Data were analyzed by AlphaEaseFC (version 4.0.0).

CD4 = assay: IL-8 generated CD4(+) prCTBs, Western blot assay; type: cell-based, human; settings: IL-8 30 ng/ml
Description: as §2

Foxp3 = assay: IL-8 induced Foxp3 via CXCR2/STAT3 signaling, Western blot; type: cell-based, human; settings: IL-8 30 ng/ml; for IL-8-induced Foxp3 in presence of inhibitor: n=3 cell lines
Description: as §2

hTS cells = assay: Insulin secretion by RIA in secretomic analysis; type: cell-based, human; settings: hTS cells (1×10^6 cells), glucose 20 mM, gliclazide 10 μM, nifedipine 10 μM, n=3
Description: The hTS cell culture media (10 ml) were harvested at 80-90% confluence followed by centrifugation (3,000 rpm, 30 min, 4° C.). The supernatants were further concentrated to 1 ml by using 3 kDa VIVASPIN® concentrator (Sigma). The concentrated supernatant was further detected for TGF-β1, HLA-G, and PAI-1 by immunoblotting assay. IL-10 level was measured by OPTEIA® ELISA assay kit following the supplier's instructions (BD Pharmingen, San Diego). The range of detectable IL-10 concentration was between 2 and 2,000 pg/ml. An aliquot of 100 μl sample was measured in triplicate. Total protein of supernatant was measured by using Pierce BCA protein assay kit (THERMO […]®). […] Media were collected at different time (5, 10, 20, 30, 60 and 120 min), freeze dried by lyophilizer (VIRTIS®; Warminster), and rehydrated with sterile water (400 μl) for radioimmunoassay (RIA). C-peptide and insulin levels were determined by C-PEP II-RIA-CT (DIAsource ImmunoAssays S. A.) and Coat-A-Count insulin (Siemens Healthcare Diagnostics), respectively, in 5 assays.

prCTBs = assay: Transwell invasion and migration assay, prCTBs; type: cell-based, human; settings: dose- and time-dependent; 4×10^3 cells/ml; n=3
Description: […] To do this, add extracellular matrix (ECM) materials on top of the transwell membrane and then add cells on top of the ECM. For example, […]® is thawed and liquefied on ice, and then 30-50 μl of […]® is added to a 24-well transwell insert and solidified in a 37 C incubator for 15-30 minutes to form a thin gel layer. Cell solution is added on top of the […]® coating to simulate invasion through the extracellular matrix. The transwell cell migration assay measures the chemotactic capability of cells toward a chemo-attractant. The transwell cell invasion assay, however, measures both cell chemotaxis and the invasion of cells through extracellular matrix, a process that is commonly found in cancer metastasis or embryonic development. Using a pipette, very carefully add 600 μl of the desired chemo-attractant into the bottom of the lower chamber in a 24-well plate. Add the chemo-attractant without moving the transwell insert and avoid generating bubbles. Make sure the chemo-attractant liquid in the bottom well makes contact with the membrane in the upper well to form a chemotactic gradient. Incubation time is dependent on cell type and the chemo-attractant being used. Note: Further tests may be needed to determine the incubation period. […] The number of migrated cells can be counted by using hemocytometer or flow cytometer. […]

hTSCs [1] = assay: Transwell invasion and migration assay, hTSCs; type: cell-based, human; settings: dose- and time-dependent; 4×10^3 cells/ml; n=3
hTSCs [2] = assay: RT-qPCR analysis of IL-6 / IL-8 treated hTSCs; type: cell-based, human; settings: n=4; for CREB1 mRNA: IL-6 10 ng/ml or IL-8 30 ng/ml
Description: RNA was isolated from hTS cells in triplicate or quintuple samples using TRIZOL® reagent (INVITROGEN®) with DNAase I on-column digestion (Qiagen) according to manufacturer's protocol. Total RNA (500 ng) was used for reverse transcription with […] cDNA synthesis kit (BIO-RAD®). PCR carried out in duplicate using 1/40th of the cDNA per reaction and 400 nM forward and reverse primers. For miRNA stem-loop qPCR, we used single tube TAQMAN® miRNA assays as manufacturer's instruction (Applied Biosystems). All RT reactions, including no-template controls and RT minus controls, were carried out in a GENEAMP® PCR 9700 Thermocycler (Applied Biosystems). Comparative real-time PCR was performed in triplicate or quintuple, including no-template controls, using specific primers for miR-124 or RNU6B (Applied Biosystems). U6 snRNA (RNU6B; Applied Biosystems) served as an endogenous control. Relative expression was calculated using SDS2.2.2 software (Applied Biosystems) was used for comparative ΔCt analysis.

β-hCG = assay: IL-6 induced β-hCG, Western blot assay; type: cell-based, human; settings: IL-6 10 ng/ml, via GnRHR and IL-6R
Description: as §2

hTSCs [3] = assay: bFGF-induced epithelial-mesenchymal transition markers, Western blot assay; type: cell-based, human; settings: bFGF 10 ng/ml
Description: as §1

[4] = tested on: STAT3, c-JUN, Fas ligand (FasL), Fas; assay: STAT3, c-JUN, FasL and Fas by immunoblotting assay; type: cell-based, human; settings: bFGF 10 ng/ml
Description: as §1

IL-6 and IL-8 = assay: bFGF induction of IL-6 and IL-8; type: cell-based, human; settings: bFGF 10 ng/ml; time-dependent; n=3 cell lines
Description: To explore how prCTBs produce cytokines IL-6 and IL-8, hTSCs were incubated with bFGF for 1-day mimicking the transient stay in the fallopian tube. Mechanistically, bFGF activated its receptor FGFR1 at cell membrane to induce PI3K/phosphorylated (p)AKT signaling. In turn, pAKT interacted and phosphorylated downstream pCREB1 (cAMP responsive element binding protein 1) to activate pCREB1 signaling. These molecular processes were verified by using FGFR 1 inhibitor PD166866, and specific shRNAs for PI3K and pAKT (FIGS. 7G-7J). In the nucleus, CREB1 targeted the genes to produce IL-6 in a time-dependent manner (FIG. 7K, left panel) and IL-8 (FIG. 7K, right panel) in a dose-dependent manner, confirmed by ELISA assay (FIG. 7C). These molecular processes occurred co-incidentally with EMT in time and space.

T1 sequence (P11362 22-822): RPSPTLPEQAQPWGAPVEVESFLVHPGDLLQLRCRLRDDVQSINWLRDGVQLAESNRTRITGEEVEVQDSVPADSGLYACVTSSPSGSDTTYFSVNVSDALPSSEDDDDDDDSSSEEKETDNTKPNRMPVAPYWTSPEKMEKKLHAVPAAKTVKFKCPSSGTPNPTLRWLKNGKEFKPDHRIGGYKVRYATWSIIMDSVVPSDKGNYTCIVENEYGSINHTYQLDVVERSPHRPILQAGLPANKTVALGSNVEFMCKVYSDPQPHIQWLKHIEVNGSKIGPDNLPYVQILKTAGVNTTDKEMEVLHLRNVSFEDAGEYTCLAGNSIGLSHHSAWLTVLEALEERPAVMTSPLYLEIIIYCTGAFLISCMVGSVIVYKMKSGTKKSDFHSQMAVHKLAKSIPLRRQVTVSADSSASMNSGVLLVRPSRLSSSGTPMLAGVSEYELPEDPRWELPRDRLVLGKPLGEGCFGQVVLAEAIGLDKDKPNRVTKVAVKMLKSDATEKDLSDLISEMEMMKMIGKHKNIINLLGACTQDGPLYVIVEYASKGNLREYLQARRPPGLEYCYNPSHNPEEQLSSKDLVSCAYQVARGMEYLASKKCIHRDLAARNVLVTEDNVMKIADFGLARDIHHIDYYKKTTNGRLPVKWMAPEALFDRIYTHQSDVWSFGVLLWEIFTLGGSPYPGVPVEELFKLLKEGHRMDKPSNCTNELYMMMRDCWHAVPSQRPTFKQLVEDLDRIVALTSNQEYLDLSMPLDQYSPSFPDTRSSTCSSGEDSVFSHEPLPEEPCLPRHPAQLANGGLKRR

NC1(c2ccc(-c3nc4ccn5c(=O)[nH]nc5c4cc3-c3ccccc3)cc2)CCC1 [MK2206]
Gβ-induced phosphorylation of AKT (ser473) and GSK3α/β (ser21/9) in presence of inhibitor (PI3K/AKT signaling): inhibited

COc1cc(OC)cc(-c2cc3cnc(N)nc3nc2NC(=O)NC(C)(C)C)c1 [PD166866, reference compound]
bFGF activation of FGFR1 and PI3K signal in presence of inhibitor (FGFR1): inhibited

Cn1cc(C2=C(c3ccc(Cl)cc3Cl)C(=O)NC2=O)c2ccccc21 [SB216763]
pMAFA expression in presence of inhibitor (PI3K/AKT signaling): inhibited

O=C(Nc1ccc([N+](=O)[O-])cc1O)Nc1ccccc1Br [SB225002]
IL-8-induced CD56 in presence of inhibitor (CD56): inhibited
IL-8-induced CD4 in presence of inhibitor (CD4): inhibited
IL-8-induced Foxp3 in presence of inhibitor (Foxp3): inhibited

O=[N+]([O-])c1ccc2c(c1)S(=O)(=O)C=C2 [Stattic]
IL-8-induced CD56 in presence of inhibitor (CD56): inhibited
IL-8-induced CD4 in presence of inhibitor (CD4): inhibited
IL-8-induced Foxp3 in presence of inhibitor (Foxp3): inhibited

Cc1ccc(S(=O)(=O)NC(=O)NN2CC3CCCC3C2)cc1 (stereo not shown) [gliclazide]
insulin secretion (hTS cells): promoted insulin secretion

CXCL2: chemokine (C-X-C motif) ligand 2
movement (invasion and migration) of prCTBs (prCTBs): significantly induced movement
movement (invasion and migration) of hTSCs (hTSCs [1]): significantly induced movement

IL-6: interleukin 6
CREB1 mRNA (hTSCs [2]; hTSCs): upregulated
IL-6R mRNA (hTSCs [2]; IL-6 10 ng/ml, hTSCs): upregulated
β-hCG mRNA (hTSCs [2]; IL-6 10 ng/ml, hTSCs): upregulated
β-hCG induction (β-hCG): induced β-hCG

IL-8: interleukin 8
CREB1 mRNA (hTSCs [2]; hTSCs): upregulates
CD56 mRNA (hTSCs [2]; IL-8 30 ng/ml): upregulates
conventional receptor IL-8R mRNA (hTSCs [2]; IL-8 30 ng/ml): not
CD56 induction (CD56): induced CD56
generation of CD4(+) prCTBs (CD4): generated CD4(+) prCTBs
Foxp3 induction (Foxp3): induced Foxp3

MCP-1: monocyte chemoattractant protein-1
movement (invasion and migration) of prCTBs (prCTBs): significantly induced movement
movement (invasion and migration) of hTSCs (hTSCs [1]): significantly induced movement

bFGF: basic fibroblast growth factor
E-cadherin expression (hTSCs [3]): down-regulated
TGF-β1 expression (hTSCs [3]): up-regulated
vimentin expression (hTSCs [3]): up-regulated
Fas level [4]: downregulation
Fas ligand (FasL) level [4]: upregulation
STAT3 level [4]: upregulation
c-JUN level [4]: upregulation
activation of FGFR1 and downstream PI3K signal (FGFR1): activated
IL-6 production (IL-6 and IL-8): induced
IL-8 production (IL-6 and IL-8): induced
